Measurements as given in US7939534B2, “Certain chemical entities, compositions, and methods” (Cytokinetics, Inc., priority 2006, dated 2011).

target: T1, chicken gizzard smooth muscle myosin subfragment-1 chemically crosslinked to either cardiac or skeletal actin (Gallus gallus, UniProt P10587); assay: Dose dependent smooth muscle myosin ATPase modulation (pyruvate kinase/horseradish peroxidase/pyruvate oxidase-coupled ATPase assay); type: biochemical; details: read-out: IC50 Arithmetic Mean
T1 construct: chicken gizzard smooth muscle myosin subfragment-1; from tissue; host or cells: chicken gizzard
In short: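 Chicken gizzard smooth muscle myosin S1 crosslinked (EDC/NHS) to cardiac or skeletal actin, concentration titrated to a set ATPase rate. Pyruvate kinase/pyruvate oxidase/HRP-coupled assay, 0.15 mM ATP, 12 mM K-PIPES pH 7.00, 100 mM KCl, amplex red fluorescence; IC50 from 4-parameter fit.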

| Compound | IC50 [µM] |
| --- | --- |
| CC(C)(C)OC(=O)N1CCN(c2ccc(C(=O)NCc3cccnc3)c(NCCc3cccc(F)c3)n2)C(=O)C1 [Compound 24, tert-butyl 4-(6-{[2-(3-fluorophenyl)ethyl]amino}-5-[N-(3-pyridylmethyl)carbamoyl](2-pyridyl))-3-oxopiperazinecarboxylate] | 59.8 |
| O=C(NCc1cccnc1)c1ccc(N2CCSCC2)nc1NCCc1cccc(F)c1 [Compound 121, (2-{[2-(3-fluorophenyl)ethyl]amino}-6-(1,4-thiazaperhydroin-4-yl)(3-pyridyl))-N-(3-pyridylmethyl)carboxamide] | 1.57 |
| O=C1CN(c2ccc(C(=O)NCc3cccnc3)c(NCCc3cccc(F)c3)n2)CCN1 [Compound 21, (2-{[2-(3-fluorophenyl)ethyl]amino}-6-(3-oxopiperazinyl)(3-pyridyl))-N-(3-pyridylmethyl)carboxamide] | 6.97 |
| COC(=O)N1CCN=C1c1ccc(C(=O)NCc2cccnc2)c(NCCc2cccc(F)c2)n1 [Compound 50, methyl 2-(6-{[2-(3-fluorophenyl)ethyl]amino}-5-[N-(3-pyridylmethyl)carbamoyl]-2-pyridyl)-2-imidazolinecarboxylate] | 21.2 |
| CC(C)(C)OC(=O)NCc1ncccc1CNC(=O)c1cc(F)c(N2CC[C@@H](O)C2)nc1NCCc1cccc(F)c1 [Compound 54, (6-((3R)-3-hydroxypyrrolidinyl)-5-fluoro-2-{[2-(3-fluorophenyl)ethyl]amino}(3-pyridyl))-N-[(2-{[(tert-butoxy)carbonylamino]methyl}(3-pyridyl))methyl]carboxamide] | 6.78 |
| COC[C@@H]1CCCN1c1ccc(C(=O)NCc2cccnc2)c(NCCc2cccc(F)c2)n1 [Compound 108, (6-[(2S)-2-(methoxymethyl)pyrrolidinyl]-2-{[2-(3-fluorophenyl)ethyl]amino}(3-pyridyl))-N-(3-pyridylmethyl)carboxamide] | 67.3 |
| O=C(NCc1cccnc1)c1ccc(C2=CCCC2)nc1NCCc1cccc(F)c1 [Compound 62, (6-cyclopent-1-enyl-2-{[2-(3-fluorophenyl)ethyl]amino}(3-pyridyl))-N-(3-pyridylmethyl)carboxamide] | 0.637 |
| O=C(NCc1cccnc1)c1ccc(N2CCOCC2)nc1NCCc1cccc(F)c1 [Compound 87, (2-{[2-(3-fluorophenyl)ethyl]amino}-6-morpholin-4-yl(3-pyridyl))-N-(3-pyridylmethyl)carboxamide] | 2.67 |
